Data taken from US20030166542A1, “Systemic immune response induced by mucosal administration of lipid-tailed polypeptides without adjuvant” (INSTITUT PASTEUR, priority 1999, published 2003).
*: point of attachment. Palmitoyl = CCCCCCCCCCCCCCCC(=O)*

How the values were obtained:
[1] = tested on: P. falciparum sporozoites, liver schizonts, infected RBC; test: Immunofluorescent Ab assay (IFAT) of sera from immunized mice against native parasite; type: in vivo
Procedure: FIG. 2: Mucosal immunization elicits parasite-specific antibody responses. Sera were obtained from C3H/HeJ mice at 2weeks post-immunization by either nasal or sub-lingual route and assayed fro recognition of (a) P. falciparum sporozoites and (B) hepatic schizonts in an IFI assay as described in Material and Methods. The data are representative of three independent experiments.
The reactivity of the sera against native proteins from various stages of the parasite were analyzed by IFAT using either (i) P. faciparum NF54 strain sporozoites (a gift of W. Eling), or (ii) sections from liver biopsies containing day 5 P. falciparum liver schizonts, or (iii) day 6 ½ P. falciparum liver schizonts obtained from a Chimpanzee. IFAT-labeled anti-human IgG, -A, -M (Diagnostic Pasteur France) or anti-mouse (Cappel. Wester Chester. Pa.) diluted {fraction (1/ 200)} were employed as second Abs.

[2] = tested on: spleen and inguinal lymph node cells; test: Lymphocyte proliferative assay ((3H)TdR) on spleen and inguinal lymph node cells of immunized mice; type: cell-based
Procedure: FIG. 3: Systemic cellular immune responses are electited by presentation of lipid-tailed polypeptides to the nasal and sub-lingual mucosal surfaces. Groups of five C3H/HeJ mice were administrated with LSA3-NRII lipid-tailed (black bars) or non-lipdated polypeptide (hatched bars) either a) intranasally, b) sub-lingually, or c) subcutaneously. Two weeks after two administrations, cell suspensions from individual spleens were assayed for in vitro proliferation to the recall polypeptide. Results are expressed as Δ cpm. The background cpm, in unstimulated cells were 1548 fro intranasal, 2356 for sub-lingual and 1965 for subcutaneous routs, Bars represent the mean Δ cpm±SD in each group. The data were similar and are representative of three separate experiments.

C3H/HeJ mice = test: Isotype analysis of polypeptide-specific serum antibodies (ELISA); type: in vivo
[3] = tested on: T lymphocytes from ganglia sub-mandibulaires; type: cell-based, BALB/c mice

Substance: Ac-LEESQVNDDIFNSLVKSVQQEQQHNVK(Pam)NH2 (Ac-LEESQVNDDIFNSLVKSVQQEQQHNVK(Palmitoyl)-NH2; SMILES CCCCCCCCCCCCCCCC(=O)NCCCC[C@H](NC(=O)[C@@H](NC(=O)[C@H](CC(N)=O)NC(=O)[C@H](Cc1c[nH]cn1)NC(=O)[C@H](CCC(N)=O)NC(=O)[C@H](CCC(N)=O)NC(=O)[C@H](CCC(=O)O)NC(=O)[C@H](CCC(N)=O)NC(=O)[C@H](CCC(N)=O)NC(=O)[C@@H](NC(=O)[C@H](CO)NC(=O)[C@H](CCCCN)NC(=O)[C@@H](NC(=O)[C@H](CC(C)C)NC(=O)[C@H](CO)NC(=O)[C@H](CC(N)=O)NC(=O)[C@H](Cc1ccccc1)NC(=O)[C@@H](NC(=O)[C@H](CC(=O)O)NC(=O)[C@H](CC(=O)O)NC(=O)[C@H](CC(N)=O)NC(=O)[C@@H](NC(=O)[C@H](CCC(N)=O)NC(=O)[C@H](CO)NC(=O)[C@H](CCC(=O)O)NC(=O)[C@H](CCC(=O)O)NC(=O)[C@H](CC(C)C)NC(C)=O)C(C)C)[C@@H](C)CC)C(C)C)C(C)C)C(C)C)C(N)=O) [LSA3-NRII lipid-tailed polypeptide, palmitoyl lipid-tailed polypeptide derived from P. falciparum LSA-3]
- reactivity of induced Abs with infected RBC's by IFAT ([1]; different steps of intra-erythrocytic maturation): did not react
- reactivity of induced Abs with intact parasite by IFAT ([1]; sporozoite and liver stages, sera of mucosally immunized BALB/c and C3H/HeJ): react with the intact parasite
- proliferative responses against irrelevant polypeptide (LSA1-J) ([2]; Ag specificity): lack of responses
- maximal delta cpm, inguinal lymph nodes ([2]; S.L.): 16189 cpm
- proliferative responses in spleen cells to recall polypeptide ([2]; S.L. or I.N. application, no mucosal adjuvant, C3H/HeJ): strong proliferative responses
- phenotype of lymphoproliferative responses (antibody blocking) ([2]; after mucosal administration, anti-CD4 / anti-CD8 antibodies): abrogated by antibodies against CD4 but not by anti- CD8 antibodies
- proliferative responses, mucosally versus subcutaneously immunized animals ([2]; same dose, P<0.05): at higher levels compared to subcutaneously immunized animals
- isotype profile of serum antibody response (C3H/HeJ mice; mucosal administration (I.N., S.L.)): preferential IgG2a serum antibody response
- isotype profile of serum antibody response (C3H/HeJ mice; subcutaneous route): dominant IgG1 isotype response

Substance: Concanavaline A [CON A, reference compound]
- immune response (CFSE shift of fluorescence) ([3]; positive control): maximum immune response

Substance: Nh2-K(NεPam)GRQYIKANSKFIGITERGRILKEPVHGV-COOH [H-K(PAM)TT-pol 476-484]
- shift of fluorescence (CFSE) [3]: as intense as that provided by positive CON A control
